Test results from US20110071150A1 (priority 2009, published 2011).

test system: Jurkat IL-2 Production; experiment: Jurkat IL-2 Production Assay; format: cell-based; conditions: Homo sapiens, Jurkat cell (ATCC), 18-20 h incubation, PHA 5 μg/mL with 1% FBS, or PMA/Ionomycin with 30% FBS (table does not say which)
Summary of the method: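 Jurkat cells were exposed to compound (0.25% DMSO final) for 10 min, then stimulated for 18–20 h at 37 °C. The 1% FBS condition used 5 μg/mL PHA; the high-serum condition (30% FBS) used 50 ng/mL PMA plus 500 ng/mL ionomycin. IC50 was derived from IL-2 production.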

SMILES | IC50
Cc1cc(C#N)ccc1-c1ccc2[nH]c(-c3ccc(F)cc3F)cc2c1 [Example 141, 4-(2-(2,4-difluorophenyl)-1H-indol-5-yl)-3-methylbenzonitrile] | 660 nM
Cc1cc(C#N)ccc1-c1ccc2[nH]c(-c3ccncc3C)cc2c1 [Example 145, methyl-4-(2-(3-methylpyridin-4-yl)-1H-indol-5-yl)benzonitrile] | 89 nM
Cc1cc(C#N)ccc1-c1ccc2[nH]c(-c3cccnc3C)cc2c1 [Example 147, methyl-4-(2-(2-methylpyridin-3-yl)-1H-indol-5-yl)benzonitrile] | 311 nM
Cc1cc(C#N)ccc1-c1ccc2[nH]c(-c3ccnn3C)cc2c1 [Example 150, methyl-4-(2-(1-methyl-1H-pyrazol-5-yl)-1H-indol-5-yl)benzonitrile] | 618 nM
Cc1cc(C#N)ccc1-c1ccc2[nH]c(-c3c(C)noc3C)cc2c1 [Example 151, 4-(2-(3,5-dimethylisoxazol-4-yl)-1H-indol-5-yl)-3-methylbenzonitrile] | 158 nM
COCCOc1cc(F)c(-c2cc3cc(-c4ccc(C#N)cc4C)ccc3[nH]2)c(F)c1 [Example 153, 4-(2-(2,6-difluoro-4-(2-methoxyethoxy)phenyl)-1H-indol-5-yl)-3-methylbenzonitrile] | 331 nM
Cc1cc(C#N)ccc1-c1ccc2[nH]c(-c3c(F)cc(OCCCC#N)cc3F)cc2c1 [Example 155, 4-(2-(4-(3-cyanopropoxy)-2,6-difluorophenyl)-1H-indol-5-yl)-3-methylbenzonitrile] | 87 nM
Cc1cc(C#N)ccc1-c1ccc2[nH]c(-c3c(F)cc(OCCCO)cc3F)cc2c1 [Example 156, 4-(2-(2,6-difluoro-4-(3-hydroxypropoxy)phenyl)-1H-indol-5-yl)-3-methylbenzonitrile] | 130 nM
Cc1cc(C#N)ccc1-c1ccc2[nH]c(-c3c(F)cc(O)cc3F)cc2c1 [Example 157, 4-(2-(2,6-difluoro-4-hydroxyphenyl)-1H-indol-5-yl)-3-methylbenzonitrile] | 222 nM
Cc1cc(S(=O)(=O)N(C)C)ccc1-c1ccc2[nH]c(-c3c(F)cccc3Cl)cc2c1 [Example 159, 4-[2-(2-Chloro-6-fluoro-phenyl)-1H-indol-5-yl]-3,N,N-trimethyl-benzenesulfonamide] | 25 nM
Cc1cc(C#N)ncc1-c1ccc2[nH]c(-c3c(F)cccc3Cl)cc2c1 [Example 162, 5-(2-(2-chloro-6-fluorophenyl)-1H-indol-5-yl)-4-methylpicolinonitrile] | 34 nM
CCOc1cc(C)c(-c2ccc3[nH]c(-c4c(F)cccc4Cl)cc3c2)cn1 [Example 164, 2-(2-chloro-6-fluorophenyl)-5-(6-ethoxy-4-methylpyridin-3-yl)-1H-indole] | 33 nM
Cc1cc(N2CCOCC2)ncc1-c1ccc2[nH]c(-c3c(F)cccc3Cl)cc2c1 [Example 165, 4-(5-(2-(2-chloro-6-fluorophenyl)-1H-indol-5-yl)-4-methylpyridin-2-yl)morpholine] | 316 nM
CNc1cc(C)c(-c2ccc3[nH]c(-c4c(F)cccc4Cl)cc3c2)cn1 [Example 166, 5-(2-(2-chloro-6-fluorophenyl)-1H-indol-5-yl)-N,4-dimethylpyridin-2-amine] | 518 nM
CNS(=O)(=O)c1ccc(-c2ccc3[nH]c(-c4c(F)cccc4Cl)cc3c2)c(C)c1 [Example 168, 4-(2-(2-chloro-6-fluorophenyl)-1H-indol-5-yl)-N,3-dimethylbenzenesulfonamide] | 44 nM
Cc1cc(S(=O)(=O)N2CCN(C)CC2)ccc1-c1ccc2[nH]c(-c3c(F)cccc3Cl)cc2c1 [Example 170, 2-(2-chloro-6-fluorophenyl)-5-(2-methyl-4-(4-methylpiperazin-1-ylsulfonyl)phenyl)-1H-indole] | 170 nM
COc1cc(C#N)ccc1-c1ccc2[nH]c(-c3c(F)cccc3Cl)cc2c1 [Example 172, 4-[2-(2-Chloro-6-fluoro-phenyl)-1H-indol-5-yl]-3-methoxy-benzonitrile] | 15 nM
Cc1cc(S(C)(=O)=O)ncc1-c1ccc2[nH]c(-c3c(F)cccc3Cl)cc2c1 [Example 173, 2-(2-Chloro-6-fluoro-phenyl)-5-(6-methanesulfonyl-4-methyl-pyridin-3-yl)-1H-indole] | 12 nM
Cc1sc(-c2cnccn2)nc1-c1ccc2[nH]c(-c3c(F)cccc3Cl)cc2c1 [Example 176, 2-(2-Chloro-6-fluoro-phenyl)-5-(5-methyl-2-pyrazin-2-yl-thiazol-4-yl)-1H-indole] | 14 nM
CCc1sc(-c2cnccn2)nc1-c1ccc2[nH]c(-c3c(F)cccc3Cl)cc2c1 [Example 179, 2-(2-Chloro-6-fluoro-phenyl)-5-(5-ethyl-2-pyrazin-2-yl-thiazol-4-yl)-1H-indole] | 23 nM
CC(C)c1sc(-c2cccnc2)nc1-c1ccc2[nH]c(-c3c(F)cccc3Cl)cc2c1 [Example 180, 2-(2-Chloro-6-fluoro-phenyl)-5-(5-isopropyl-2-pyridin-3-yl-thiazol-4-yl)-1H-indole] | 28 nM

More lines, in order of falling IC50, values ahead:

IC50 | SMILES
731 nM | COc1cc(C)c(-c2ccc3[nH]c(-c4cccc(C#N)c4F)cc3c2)cn1 [Example 152, 2-fluoro-3-(5-(6-methoxy-4-methylpyridin-3-yl)-1H-indol-2-yl)benzonitrile]
586 nM | Cc1cc(C#N)ccc1-c1ccc2[nH]c(-c3c(F)cc(OCCO)cc3F)cc2c1 [Example 154, 4-(2-(2,6-difluoro-4-(2-hydroxyethoxy)phenyl)-1H-indol-5-yl)-3-methylbenzonitrile]
547 nM | Cc1nc(C)c(-c2cc3cc(-c4ccc(C#N)cc4C)ccc3[nH]2)s1 [Example 148, 4-(2-(2,4-dimethylthiazol-5-yl)-1H-indol-5-yl)-3-methylbenzonitrile]
286 nM | Cc1cc(C#N)ccc1-c1ccc2[nH]c(-c3cscc3C)cc2c1 [Example 149, methyl-4-(2-(4-methylthiophen-3-yl)-1H-indol-5-yl)benzonitrile]
182 nM | COc1cc(C)c(-c2cc3cc(-c4ccc(C#N)cc4C)ccc3[nH]2)cn1 [Example 143, 4-(2-(6-methoxy-4-methylpyridin-3-yl)-1H-indol-5-yl)-3-methylbenzonitrile]
167 nM | COc1ccc(F)c(-c2cc3cc(-c4ccc(C#N)cc4C)ccc3[nH]2)c1F [Example 142, 4-(2-(2,6-difluoro-3-methoxyphenyl)-1H-indol-5-yl)-3-methylbenzonitrile]
150 nM | Cc1cc(C#N)ccc1-c1ccc2[nH]c(-c3sccc3C)cc2c1 [Example 146, methyl-4-(2-(3-methylthiophen-2-yl)-1H-indol-5-yl)benzonitrile]
117 nM | Cc1cc(S(=O)(=O)N2CCOCC2)ccc1-c1ccc2[nH]c(-c3c(F)cccc3Cl)cc2c1 [Example 169, 4-(4-(2-(2-chloro-6-fluorophenyl)-1H-indol-5-yl)-3-methylphenylsulfonyl)morpholine]
108 nM | COCCOc1cc(C)c(-c2ccc3[nH]c(-c4c(F)cccc4Cl)cc3c2)cn1 [Example 163, 2-(2-chloro-6-fluorophenyl)-5-(6-(2-methoxyethoxy)-4-methylpyridin-3-yl)-1H-indole]
99 nM | Cc1cc(C#N)cnc1-c1ccc2[nH]c(-c3c(F)cccc3Cl)cc2c1 [Example 161, 6-(2-(2-chloro-6-fluorophenyl)-1H-indol-5-yl)-5-methylnicotinonitrile]
96 nM | Cc1cc(C#N)ccc1-c1ccc2[nH]c(-c3cnccc3C)cc2c1 [Example 144, methyl-4-(2-(4-methylpyridin-3-yl)-1H-indol-5-yl)benzonitrile]
82 nM | Cc1sc(-c2cncnc2)nc1-c1ccc2[nH]c(-c3c(F)cccc3Cl)cc2c1 [Example 177, 2-(2-Chloro-6-fluoro-phenyl)-5-(5-methyl-2-pyrimidin-5-yl-thiazol-4-yl)-1H-indole]
59 nM | Cc1ccc(-c2nc(-c3ccc4[nH]c(-c5c(F)cccc5Cl)cc4c3)c(C)s2)cn1 [Example 178, 2-(2-Chloro-6-fluoro-phenyl)-5-[5-methyl-2-(6-methyl-pyridin-3-yl)-thiazol-4-yl]-1H-indole]
56 nM | CC(C)c1sc(-c2cnccn2)nc1-c1ccc2[nH]c(-c3c(F)cccc3Cl)cc2c1 [Example 181, 2-(2-Chloro-6-fluoro-phenyl)-5-(5-isopropyl-2-pyrazin-2-yl-thiazol-4-yl)-1H-indole]
34 nM | Cc1cc(S(=O)(=O)N(C)C)cnc1-c1ccc2[nH]c(-c3c(F)cccc3Cl)cc2c1 [Example 167, 6-(2-(2-chloro-6-fluorophenyl)-1H-indol-5-yl)-N,N,5-trimethylpyridine-3-sulfonamide]
22 nM | CCc1cc(Cl)ncc1-c1ccc2[nH]c(-c3c(F)cccc3Cl)cc2c1 [Example 174, 5-(6-Chloro-4-ethyl-pyridin-3-yl)-2-(2-chloro-6-fluoro-phenyl)-1H-indole]
18 nM | Cc1cc(Cl)ncc1-c1ccc2[nH]c(-c3c(F)cccc3Cl)cc2c1 [Example 160, 2-(2-Chloro-6-fluoro-phenyl)-5-(6-chloro-4-methyl-pyridin-3-yl)-1H-indole]
17 nM | Cc1cc(-c2nnn(C)n2)ccc1-c1ccc2[nH]c(-c3c(F)cccc3Cl)cc2c1 [Example 171, 2-(2-chloro-6-fluorophenyl)-5-(2-methyl-4-(2-methyl-2H-tetrazol-5-yl)phenyl)-1H-indole]
16 nM | Cc1cc(C#N)ccc1-c1ccc2[nH]c(-c3c(F)cccc3Cl)cc2c1 [Example 158, 4-[2-(2-chloro-6-fluorophenyl)-1H-indol-5-yl]-3-methylbenzonitrile]
11 nM | CCc1sc(-c2cccnc2)nc1-c1ccc2[nH]c(-c3c(F)cccc3Cl)cc2c1 [Example 175, 4-[2-(2-chloro-6-fluorophenyl)-1H-indol-5-yl]-5-ethyl-2-(pyridin-3-yl)thiazole]
